Source: the kinase profiling compilation of Christmann-Franck et al. (2016)

How the values were obtained:
Test in all cases: KINOMEscan competition binding
AAK1 (human) = AAK1 (human) (UniProt Q2M2I8); settings: compound 10.0 µM
AURKC (human) = AURKC (human) (UniProt Q9UQB9); settings: compound 10.0 µM
BMP2K (human) = BMP2K (human) (UniProt Q9NSY1); settings: compound 10.0 µM
BRSK1 (human) = BRSK1 (human) (UniProt Q8TDC3); settings: compound 10.0 µM
CDK18 (human) = CDK18 (human) (UniProt Q07002); settings: compound 10.0 µM
CDK2 (human) = CDK2 (human) (UniProt P24941); settings: compound 10.0 µM
CIT (human) = CIT (human) (UniProt O14578); settings: compound 10.0 µM
CLK3 (human) = CLK3 (human) (UniProt P49761); settings: compound 10.0 µM
CSNK1G3 (human) = CSNK1G3 (human) (UniProt Q9Y6M4); settings: compound 10.0 µM
CSNK1G3 (human), sequence (Q9Y6M4 whole entry, looked up): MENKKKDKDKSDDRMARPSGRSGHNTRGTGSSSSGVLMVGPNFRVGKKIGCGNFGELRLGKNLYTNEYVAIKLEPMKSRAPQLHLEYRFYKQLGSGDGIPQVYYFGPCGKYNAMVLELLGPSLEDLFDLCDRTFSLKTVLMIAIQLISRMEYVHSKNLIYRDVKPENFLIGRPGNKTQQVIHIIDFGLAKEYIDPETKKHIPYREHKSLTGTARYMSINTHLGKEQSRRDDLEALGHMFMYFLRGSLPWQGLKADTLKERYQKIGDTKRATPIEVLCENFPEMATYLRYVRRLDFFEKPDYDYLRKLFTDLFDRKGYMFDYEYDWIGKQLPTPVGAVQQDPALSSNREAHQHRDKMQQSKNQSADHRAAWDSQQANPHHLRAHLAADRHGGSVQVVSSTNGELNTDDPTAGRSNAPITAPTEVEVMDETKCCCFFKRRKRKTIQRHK

CSNK2A1 (human) = CSNK2A1 (human) (UniProt P68400); settings: for kinase still bound, per cent of control: compound 10.0 µM
[1] = test system: EGFR (human), P00533 [752-759 del]; settings: compound 10.0 µM
[2] = test system: EGFR (human), P00533 [P753S; 747-752 del]; settings: compound 10.0 µM
EIF2AK2 (human) = EIF2AK2 (human) (UniProt P19525); settings: compound 10.0 µM
FLT3 (human) = FLT3 (human) (UniProt P36888); settings: compound 10.0 µM
[3] = test system: FLT3 (human), P36888 [D835Y]; settings: compound 10.0 µM
[4] = test system: FLT3 (human), P36888 [ITD]; settings: compound 10.0 µM
GSK3A (human) = GSK3A (human) (UniProt P49840); settings: compound 10.0 µM
LIMK1 (human) = LIMK1 (human) (UniProt P53667); settings: compound 10.0 µM
MAP3K4 (human) = MAP3K4 (human) (UniProt Q9Y6R4); settings: compound 10.0 µM
MAP3K7 (human) = MAP3K7 (human) (UniProt O43318); settings: compound 10.0 µM
MAP4K5 (human) = MAP4K5 (human) (UniProt Q9Y4K4); settings: compound 10.0 µM
MELK (human) = MELK (human) (UniProt Q14680); settings: compound 10.0 µM
MERTK (human) = MERTK (human) (UniProt Q12866); settings: compound 10.0 µM
MYLK (human) = MYLK (human) (UniProt Q15746); settings: compound 10.0 µM
MYLK4 (human) = MYLK4 (human) (UniProt Q86YV6); settings: compound 10.0 µM
MYO3B (human) = MYO3B (human) (UniProt Q8WXR4); settings: compound 10.0 µM
NEK1 (human) = NEK1 (human) (UniProt Q96PY6); settings: compound 10.0 µM
NEK9 (human) = NEK9 (human) (UniProt Q8TD19); settings: compound 10.0 µM
PAK7 (human) = PAK7 (human) (UniProt Q9P286); settings: compound 10.0 µM
PDGFRB (human) = PDGFRB (human) (UniProt P09619); settings: compound 10.0 µM
PIK3CB (human) = PIK3CB (human) (UniProt P42338); settings: compound 10.0 µM
PIK3CB (human), sequence (P42338 whole entry, looked up): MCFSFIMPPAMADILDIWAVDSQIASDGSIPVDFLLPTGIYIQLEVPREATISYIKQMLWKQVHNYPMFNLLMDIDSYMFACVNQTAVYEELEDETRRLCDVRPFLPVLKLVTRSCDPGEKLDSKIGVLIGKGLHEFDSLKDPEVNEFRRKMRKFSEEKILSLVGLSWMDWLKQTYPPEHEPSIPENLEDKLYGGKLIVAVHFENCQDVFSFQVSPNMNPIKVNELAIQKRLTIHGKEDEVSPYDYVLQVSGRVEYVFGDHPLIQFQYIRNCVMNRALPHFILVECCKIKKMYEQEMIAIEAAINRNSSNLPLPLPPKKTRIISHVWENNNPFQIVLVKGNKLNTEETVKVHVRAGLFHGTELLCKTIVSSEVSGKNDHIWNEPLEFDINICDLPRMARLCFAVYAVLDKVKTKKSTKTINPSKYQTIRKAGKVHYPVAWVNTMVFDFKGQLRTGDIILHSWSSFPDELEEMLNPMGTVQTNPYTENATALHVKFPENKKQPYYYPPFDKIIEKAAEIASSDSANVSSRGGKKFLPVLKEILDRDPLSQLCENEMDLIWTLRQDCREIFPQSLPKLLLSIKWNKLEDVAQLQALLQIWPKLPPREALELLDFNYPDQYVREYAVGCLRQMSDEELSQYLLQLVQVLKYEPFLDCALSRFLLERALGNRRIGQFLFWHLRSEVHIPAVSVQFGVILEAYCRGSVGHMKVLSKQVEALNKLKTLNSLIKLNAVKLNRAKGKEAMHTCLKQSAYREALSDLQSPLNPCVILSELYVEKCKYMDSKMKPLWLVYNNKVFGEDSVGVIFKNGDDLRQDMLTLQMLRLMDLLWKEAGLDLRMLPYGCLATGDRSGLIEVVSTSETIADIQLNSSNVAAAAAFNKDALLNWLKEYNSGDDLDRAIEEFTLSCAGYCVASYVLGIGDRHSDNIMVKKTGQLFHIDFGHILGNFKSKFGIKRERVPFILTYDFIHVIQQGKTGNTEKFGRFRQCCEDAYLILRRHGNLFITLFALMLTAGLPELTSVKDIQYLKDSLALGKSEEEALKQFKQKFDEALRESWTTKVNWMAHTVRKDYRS

PTK2B (human) = PTK2B (human) (UniProt Q14289); settings: compound 10.0 µM
RIOK2 (human) = RIOK2 (human) (UniProt Q9BVS4); settings: compound 10.0 µM
RIPK4 (human) = RIPK4 (human) (UniProt P57078); settings: compound 10.0 µM
SIK2 (human) = SIK2 (human) (UniProt Q9H0K1); settings: compound 10.0 µM
SRC (human) = SRC (human) (UniProt P12931); settings: compound 10.0 µM
SRMS (human) = SRMS (human) (UniProt Q9H3Y6); settings: compound 10.0 µM
STK17B (human) = STK17B (human) (UniProt O94768); settings: for kinase still bound, per cent of control: compound 10.0 µM
STK17B (human), sequence (O94768 whole entry, looked up): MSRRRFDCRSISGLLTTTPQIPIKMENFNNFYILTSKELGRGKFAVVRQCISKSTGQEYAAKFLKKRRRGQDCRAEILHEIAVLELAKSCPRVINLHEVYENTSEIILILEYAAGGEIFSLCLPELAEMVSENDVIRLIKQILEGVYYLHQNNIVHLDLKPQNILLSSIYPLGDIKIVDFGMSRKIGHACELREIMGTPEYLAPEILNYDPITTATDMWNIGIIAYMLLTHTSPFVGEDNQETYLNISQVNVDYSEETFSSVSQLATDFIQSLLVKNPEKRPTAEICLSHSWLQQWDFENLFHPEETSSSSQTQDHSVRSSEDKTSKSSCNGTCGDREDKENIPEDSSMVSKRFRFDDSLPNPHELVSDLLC

SYK (human) = SYK (human) (UniProt P43405); settings: compound 10.0 µM
TTK (human) = TTK (human) (UniProt P33981); settings: compound 10.0 µM
[5] = target: TYK2 JH1 catalytic (human) (UniProt P29597); settings: compound 10.0 µM
WEE2 (human) = WEE2 (human) (UniProt P0C1S8); settings: compound 10.0 µM

BRSK1 (human), sequence (Q8TDC3 whole entry, looked up): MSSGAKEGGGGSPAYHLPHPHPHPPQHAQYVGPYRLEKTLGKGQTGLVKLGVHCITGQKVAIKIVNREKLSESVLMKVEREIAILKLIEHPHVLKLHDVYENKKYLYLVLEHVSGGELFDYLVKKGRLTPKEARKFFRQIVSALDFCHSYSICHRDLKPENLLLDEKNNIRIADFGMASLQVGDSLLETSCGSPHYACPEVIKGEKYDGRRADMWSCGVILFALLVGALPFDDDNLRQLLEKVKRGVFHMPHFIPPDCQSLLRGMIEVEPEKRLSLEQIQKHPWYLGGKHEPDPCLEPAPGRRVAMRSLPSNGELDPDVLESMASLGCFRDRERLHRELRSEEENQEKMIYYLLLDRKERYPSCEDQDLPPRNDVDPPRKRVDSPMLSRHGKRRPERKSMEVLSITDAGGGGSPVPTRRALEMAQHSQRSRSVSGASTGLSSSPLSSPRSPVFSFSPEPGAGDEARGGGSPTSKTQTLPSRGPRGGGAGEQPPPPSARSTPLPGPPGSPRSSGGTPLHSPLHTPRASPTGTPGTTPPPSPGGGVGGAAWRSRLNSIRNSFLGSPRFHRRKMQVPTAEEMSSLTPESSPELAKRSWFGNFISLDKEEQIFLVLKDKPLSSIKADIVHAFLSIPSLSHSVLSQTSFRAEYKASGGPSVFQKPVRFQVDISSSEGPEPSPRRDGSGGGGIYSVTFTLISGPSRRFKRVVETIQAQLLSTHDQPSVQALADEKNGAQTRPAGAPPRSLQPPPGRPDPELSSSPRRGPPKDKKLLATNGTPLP
BMP2K (human), sequence (Q9NSY1 whole entry, looked up): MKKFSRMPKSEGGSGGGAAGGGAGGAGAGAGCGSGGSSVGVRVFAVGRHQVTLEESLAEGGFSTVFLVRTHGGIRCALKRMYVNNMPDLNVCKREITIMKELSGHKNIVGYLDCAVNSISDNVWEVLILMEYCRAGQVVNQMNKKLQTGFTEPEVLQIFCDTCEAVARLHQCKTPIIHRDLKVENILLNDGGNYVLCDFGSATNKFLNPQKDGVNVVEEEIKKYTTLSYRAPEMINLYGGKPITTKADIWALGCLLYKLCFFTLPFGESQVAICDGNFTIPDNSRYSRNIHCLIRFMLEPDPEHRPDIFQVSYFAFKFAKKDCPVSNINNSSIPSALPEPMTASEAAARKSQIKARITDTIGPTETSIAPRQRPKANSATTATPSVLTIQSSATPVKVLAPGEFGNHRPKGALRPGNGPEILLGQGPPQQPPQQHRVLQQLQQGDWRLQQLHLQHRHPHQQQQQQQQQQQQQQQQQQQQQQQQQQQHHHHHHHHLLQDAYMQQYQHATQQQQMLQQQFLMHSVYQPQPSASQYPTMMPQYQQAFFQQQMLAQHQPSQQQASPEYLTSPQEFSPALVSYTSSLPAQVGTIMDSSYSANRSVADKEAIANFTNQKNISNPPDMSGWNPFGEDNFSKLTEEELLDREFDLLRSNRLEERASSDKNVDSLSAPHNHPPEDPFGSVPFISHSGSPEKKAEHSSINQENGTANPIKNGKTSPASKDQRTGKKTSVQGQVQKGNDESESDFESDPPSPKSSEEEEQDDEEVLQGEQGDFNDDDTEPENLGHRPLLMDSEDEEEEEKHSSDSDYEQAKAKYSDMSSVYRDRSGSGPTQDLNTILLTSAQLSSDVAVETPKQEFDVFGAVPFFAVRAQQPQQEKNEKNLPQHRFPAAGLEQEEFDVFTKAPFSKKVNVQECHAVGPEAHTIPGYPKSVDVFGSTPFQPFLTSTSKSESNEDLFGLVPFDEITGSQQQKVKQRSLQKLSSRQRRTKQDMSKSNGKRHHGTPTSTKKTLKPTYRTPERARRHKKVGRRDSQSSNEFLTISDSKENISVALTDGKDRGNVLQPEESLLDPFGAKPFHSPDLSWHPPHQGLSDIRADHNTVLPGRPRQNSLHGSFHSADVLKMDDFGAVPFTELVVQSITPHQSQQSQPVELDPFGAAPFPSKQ
AAK1 (human), sequence (Q2M2I8 whole entry, looked up): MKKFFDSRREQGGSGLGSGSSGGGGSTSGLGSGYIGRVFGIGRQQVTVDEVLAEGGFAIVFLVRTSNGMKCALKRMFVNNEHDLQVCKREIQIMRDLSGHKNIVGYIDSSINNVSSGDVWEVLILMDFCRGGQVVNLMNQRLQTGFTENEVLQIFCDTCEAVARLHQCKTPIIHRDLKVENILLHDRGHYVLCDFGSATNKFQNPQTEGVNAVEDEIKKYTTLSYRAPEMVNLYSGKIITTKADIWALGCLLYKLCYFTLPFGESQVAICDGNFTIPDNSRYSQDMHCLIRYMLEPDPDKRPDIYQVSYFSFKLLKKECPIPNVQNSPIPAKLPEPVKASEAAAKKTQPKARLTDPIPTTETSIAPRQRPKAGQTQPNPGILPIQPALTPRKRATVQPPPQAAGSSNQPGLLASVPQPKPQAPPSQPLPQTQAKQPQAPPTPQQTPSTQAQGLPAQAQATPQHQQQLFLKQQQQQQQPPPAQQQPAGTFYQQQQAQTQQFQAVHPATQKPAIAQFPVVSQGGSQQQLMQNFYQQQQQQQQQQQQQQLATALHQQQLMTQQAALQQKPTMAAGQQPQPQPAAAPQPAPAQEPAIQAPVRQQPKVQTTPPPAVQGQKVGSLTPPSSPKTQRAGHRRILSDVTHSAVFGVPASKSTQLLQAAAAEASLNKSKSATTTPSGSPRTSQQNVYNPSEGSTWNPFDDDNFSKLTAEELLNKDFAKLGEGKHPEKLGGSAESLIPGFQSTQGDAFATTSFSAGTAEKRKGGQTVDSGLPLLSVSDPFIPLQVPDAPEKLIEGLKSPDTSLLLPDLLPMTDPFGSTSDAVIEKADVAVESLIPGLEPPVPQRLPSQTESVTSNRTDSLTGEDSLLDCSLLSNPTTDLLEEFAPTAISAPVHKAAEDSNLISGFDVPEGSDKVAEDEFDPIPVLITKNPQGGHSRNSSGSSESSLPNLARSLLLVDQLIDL

## CN1CCN(c2ccc(C(=O)Nc3ncc4c(n3)N(C)c3ccccc3C(=O)N4C)cc2)CC1
AAK1 (human)
  kinase still bound, per cent of control: 100%
AURKC (human)
  kinase still bound, per cent of control: 99%
BMP2K (human)
  kinase still bound, per cent of control: 100%
BRSK1 (human)
  kinase still bound, per cent of control: 87%
CDK18 (human)
  kinase still bound, per cent of control: 100%
CDK2 (human)
  kinase still bound, per cent of control: 98%
CIT (human)
  kinase still bound, per cent of control: 100%
CLK3 (human)
  kinase still bound, per cent of control: 100%
CSNK1G3 (human)
  kinase still bound, per cent of control: 100%
CSNK2A1 (human)
  kinase still bound, per cent of control: 100%
[1]
  kinase still bound, per cent of control: 100%
[2]
  kinase still bound, per cent of control: 100%
EIF2AK2 (human)
  kinase still bound, per cent of control: 100%
FLT3 (human)
  kinase still bound, per cent of control: 100%
[3]
  kinase still bound, per cent of control: 79%
[4]
  kinase still bound, per cent of control: 100%
GSK3A (human)
  kinase still bound, per cent of control: 100%
LIMK1 (human)
  kinase still bound, per cent of control: 100%
MAP3K4 (human)
  kinase still bound, per cent of control: 100%
MAP3K7 (human)
  kinase still bound, per cent of control: 89%
MAP4K5 (human)
  kinase still bound, per cent of control: 100%
MELK (human)
  kinase still bound, per cent of control: 99%
MERTK (human)
  kinase still bound, per cent of control: 100%
MYLK (human)
  kinase still bound, per cent of control: 92%
MYLK4 (human)
  kinase still bound, per cent of control: 100%
MYO3B (human)
  kinase still bound, per cent of control: 93%
NEK1 (human)
  kinase still bound, per cent of control: 100%
NEK9 (human)
  kinase still bound, per cent of control: 100%
PAK7 (human)
  kinase still bound, per cent of control: 100%
PDGFRB (human)
  kinase still bound, per cent of control: 80%
PIK3CB (human)
  kinase still bound, per cent of control: 100%
PTK2B (human)
  kinase still bound, per cent of control: 100%
RIOK2 (human)
  kinase still bound, per cent of control: 85%
RIPK4 (human)
  kinase still bound, per cent of control: 96%
SIK2 (human)
  kinase still bound, per cent of control: 78%
SRC (human)
  kinase still bound, per cent of control: 100%
SRMS (human)
  kinase still bound, per cent of control: 96%
STK17B (human)
  kinase still bound, per cent of control: 100%
SYK (human)
  kinase still bound, per cent of control: 100%
TTK (human)
  kinase still bound, per cent of control: 95%
[5]
  kinase still bound, per cent of control: 44%
WEE2 (human)
  kinase still bound, per cent of control: 100%

## O=C1NC(=O)/C(=C/c2c[nH]c(=O)c(-c3ccc(N4CCNCC4)nc3)c2)S1
AAK1 (human)
  kinase still bound, per cent of control: 2.4%
AURKC (human)
  kinase still bound, per cent of control: 57%
BMP2K (human)
  kinase still bound, per cent of control: 2%
BRSK1 (human)
  kinase still bound, per cent of control: 100%
CDK18 (human)
  kinase still bound, per cent of control: 82%
CDK2 (human)
  kinase still bound, per cent of control: 73%
CIT (human)
  kinase still bound, per cent of control: 37%
CLK3 (human)
  kinase still bound, per cent of control: 2.8%
CSNK1G3 (human)
  kinase still bound, per cent of control: 3.2%
CSNK2A1 (human)
  Kd: 31 nM
  kinase still bound, per cent of control: 0.65%
[1]
  kinase still bound, per cent of control: 95%
[2]
  kinase still bound, per cent of control: 76%
EIF2AK2 (human)
  kinase still bound, per cent of control: 38%
FLT3 (human)
  kinase still bound, per cent of control: 91%
[3]
  kinase still bound, per cent of control: 60%
[4]
  kinase still bound, per cent of control: 75%
GSK3A (human)
  kinase still bound, per cent of control: 75%
LIMK1 (human)
  kinase still bound, per cent of control: 94%
MAP3K4 (human)
  kinase still bound, per cent of control: 14%
MAP3K7 (human)
  kinase still bound, per cent of control: 91%
MAP4K5 (human)
  kinase still bound, per cent of control: 52%
MELK (human)
  kinase still bound, per cent of control: 24%
MERTK (human)
  kinase still bound, per cent of control: 83%
MYLK (human)
  kinase still bound, per cent of control: 42%
MYO3B (human)
  kinase still bound, per cent of control: 74%
NEK1 (human)
  kinase still bound, per cent of control: 73%
NEK9 (human)
  kinase still bound, per cent of control: 71%
PAK7 (human)
  kinase still bound, per cent of control: 65%
PDGFRB (human)
  kinase still bound, per cent of control: 67%
PIK3CB (human)
  kinase still bound, per cent of control: 4.8%
PTK2B (human)
  kinase still bound, per cent of control: 100%
RIOK2 (human)
  kinase still bound, per cent of control: 66%
RIPK4 (human)
  kinase still bound, per cent of control: 100%
SIK2 (human)
  kinase still bound, per cent of control: 76%
SRC (human)
  kinase still bound, per cent of control: 100%
SRMS (human)
  kinase still bound, per cent of control: 86%
STK17B (human)
  Kd: 130 nM
  kinase still bound, per cent of control: 0.15%
SYK (human)
  kinase still bound, per cent of control: 100%
TTK (human)
  kinase still bound, per cent of control: 59%
[5]
  kinase still bound, per cent of control: 2.5%
WEE2 (human)
  kinase still bound, per cent of control: 100%

## CN1C(=O)c2ccccc2N(C)c2nc(Nc3ccc(N4CCC(O)CC4)cc3)ncc21
AAK1 (human)
  kinase still bound, per cent of control: 62%
AURKC (human)
  kinase still bound, per cent of control: 22%
BMP2K (human)
  kinase still bound, per cent of control: 43%
BRSK1 (human)
  kinase still bound, per cent of control: 56%
CDK18 (human)
  kinase still bound, per cent of control: 100%
CDK2 (human)
  kinase still bound, per cent of control: 91%
CIT (human)
  kinase still bound, per cent of control: 95%
CLK3 (human)
  kinase still bound, per cent of control: 97%
CSNK1G3 (human)
  kinase still bound, per cent of control: 67%
CSNK2A1 (human)
  kinase still bound, per cent of control: 86%
[1]
  kinase still bound, per cent of control: 92%
[2]
  kinase still bound, per cent of control: 100%
EIF2AK2 (human)
  kinase still bound, per cent of control: 100%
FLT3 (human)
  kinase still bound, per cent of control: 100%
[3]
  kinase still bound, per cent of control: 24%
[4]
  kinase still bound, per cent of control: 52%
GSK3A (human)
  kinase still bound, per cent of control: 100%
LIMK1 (human)
  kinase still bound, per cent of control: 97%
MAP3K4 (human)
  kinase still bound, per cent of control: 100%
MAP3K7 (human)
  kinase still bound, per cent of control: 58%
MAP4K5 (human)
  kinase still bound, per cent of control: 85%
MELK (human)
  kinase still bound, per cent of control: 100%
MERTK (human)
  kinase still bound, per cent of control: 100%
MYLK (human)
  kinase still bound, per cent of control: 63%
MYLK4 (human)
  kinase still bound, per cent of control: 100%
MYO3B (human)
  kinase still bound, per cent of control: 73%
NEK1 (human)
  kinase still bound, per cent of control: 93%
NEK9 (human)
  kinase still bound, per cent of control: 100%
PAK7 (human)
  kinase still bound, per cent of control: 87%
PDGFRB (human)
  kinase still bound, per cent of control: 61%
PIK3CB (human)
  kinase still bound, per cent of control: 94%
PTK2B (human)
  kinase still bound, per cent of control: 78%
RIOK2 (human)
  kinase still bound, per cent of control: 63%
RIPK4 (human)
  kinase still bound, per cent of control: 61%
SIK2 (human)
  kinase still bound, per cent of control: 61%
SRC (human)
  kinase still bound, per cent of control: 21%
SRMS (human)
  kinase still bound, per cent of control: 87%
STK17B (human)
  kinase still bound, per cent of control: 79%
SYK (human)
  kinase still bound, per cent of control: 61%
TTK (human)
  kinase still bound, per cent of control: 78%
[5]
  kinase still bound, per cent of control: 1.9%
WEE2 (human)
  kinase still bound, per cent of control: 70%
